These results are taken from patent publication US7966056B2, “Magnetic resonance imaging method and compounds for use in the method” (GE Healthcare AS, priority 2002, dated 2011).

In one series the test system is mice. The settings on record: intravenous injection in mice; cited from earlier work.
For another series, the system named is anaesthetised dogs. Briefly: cardiovascular effects in anaesthetised dogs with and without dobutamine stress (Example 7). The class given is in vivo. The note with it: dobutamine alone, 5-20 μg/kg/min infusion. The method, then: The cardiovascular effects of MnHPTA with various amounts of Ca^2+ (0, 0.5 and 1 mol Ca^2+ per mol Mn^2+) were investigated in the presence and absence of dobutamine induced pharmacological stress in anaesthetised dogs.
Anaesthesia was induced with pentobarbital (12-25 mg/kg i.v.) and fentanyl (1.5-2.5 μg/kg i.v.), followed by a continuous i.v. infusion of fentanyl (20 μg/kg/h and pentobarbital (10 mg/kg/h). Artificial ventilation was carried out by room air through a tracheal tube, aimed at achieving normal physiological blood gas values. A catheter was introduced through the right femoral artery for measurement of SAP. A microtip pressure transducer catheter (Millar) was placed into the left ventricle through the carotid artery for measurements of LVdP/dt. A Swan-Ganz catheter was introduced through the right femoral vein for measuring PAP (pulmonary arterial pressure). A 3-lead ECG was continuously-monitored. An ultrasonic flow probe was placed around the left femoral artery for flow measurement. Venflon cannulas were introduced into the left and right jugular veins for contrast agent injections and dobutamine infusions, respectively. […]
Systolic, diastolic and mean systemic arterial pressure (SYS, DIA MEAN), LVdP/dt, femoral arterial flow, mean PAP (pulmonary arterial pressure), HR (heart rate) and ECG were continuously monitored and stored by a computer system.

Series [1] can be described thus: maximum solubility in water. The class given is physicochemical. From the text:
In the method according to the invention the contrast agent is preferably administered in a bolus injection although slow injection or infusion of the contrast agent is also suitable. For Mn^2+ complexes with low formation constants, e.g. in the area 10^3 to 10^8 there might be a risk that the release of Mn^2+ from the complex may still be sufficiently rapid to induce cardiotoxic reactions in the body. To avoid such toxic reactions, the contrast agent comprising such complexes could be provided in solutions comprising low concentrations of such complexes. If it is preferred to provide the contrast agent in dry form, e.g. as a lyophilized powder, for on site preparation of the solution for injection, complexes with properties that avoid the preparation of high concentration solutions provide an additional advantage. For example the sodium salt of MnTPP, Na3MP3O10, has a limited solubility, thus prohibiting injections of highly concentrated solutions of manganese. […] This injection volume additionally prohibits rapid bolus injections of sodium salts of MnTPP.

Experimental for myocardium: In an anaesthesed pig, heart rate and systolic/diastolic blood pressure were monitored.
Dobutamine was infused at a dose of 10 μg/kg body weight/min and increased by 10 μg/kg/min every second minute until a PRP (pressure-rate product) of a factor 2.5 was achieved.
10 μmol/kg body weight of MnTPP was injected in a bolus during 4 seconds.
The pig was subjected to imaging at 1.5 T in a clinical scanner. Short axis view images of the myocardium were acquired 45 minutes post injection.

For `[Ca+2].[Cl-].[Cl-]` [CaCl2], the LD50 in the series with mice is listed as 42.2 mg/kg. For the compound `CC(CCc1ccc(O)cc1)NCCc1ccc(O)c(O)c1` (stereo not drawn) [Dobutamine, dobutamine], the “increase in dP/dt max” value in the series with anaesthetised dogs came to 4 times. With `[Ba+2].[Cl-].[Cl-]` [BaCl2], in the series on mice, the LD50 is recorded as 19.2 mg/kg. On to manganese triphosphate [MnTPP], for which the “clinical signs represented by changes in physiological parameters” value with myocardium (10 μmol/kg body weight bolus during 4 seconds, dobutamine stress, anaesthetised pig) is “No clinical signs represented by changes in physiological parameters were observed”. Further, in the series with myocardium (10 μmol/kg, 1.5 T, 45 minutes post injection, pig), the “short axis view MR images of the myocardium” value is listed as “visualised an underperfused area”.

With `O=P([O-])([O-])OP(=O)([O-])OP(=O)([O-])[O-].[Mn+2].[Na+].[Na+].[Na+]` [sodium salt of MnTPP], the “maximum solubility in water” value in series [1] worked out at 23 mM.
